One assay concerns mHTT. Briefly: Mutant and total HTT multiplex HTRF assay in Q48 HTT human embryonic stem cell line: mHTT. Particulars: Q48 HTT hESC, 48 hours. The class given is cell-based. On the procedure: (§1) The multiplex assay is performed in human embryonic stem cells (hESCs) which have been derived by Genea Biocells from human blastocysts of HD donors. Cells are plated at a density of 10,000 cells/well into 384-well collagen coated plates and left to adhere for 24 hours, compounds 1 to 82 are then added to cells and incubated for 48 hours (37° C., 5% CO2), cells are then lysed and the contents split into a black 384-well plate.
(§2) The black plates have a combination of HTRF labeled monoclonal antibodies added which recognize discrete areas of the HTT protein, the 2B7-Tb “donor” antibody (0.2 ng/well) recognizes a sequence at the N-terminus of the protein, an MW1-Alexa488 “acceptor 1” antibody (30 ng/well) recognizes an area in the polyQ region, whereas a MAB2166-d2 “acceptor 2” antibody (6 ng/well) recognizes a sequence beyond the polyQ region. The 2B7 antibody was obtained from Coriell (CH02024), the MW1 antibody from Millipore (MABN2427), and the MAB2166 antibody from Millipore (1HU-4C8).
(§3) These detection reagents are incubated with the cell lysate at room temperature for 4-6 hours before having their fluorescence quantified at 615 nm (donor) and 535 nm and 665 nm (acceptor 1 and 2 respectively). The donor/acceptor ratio between these signals indicates the relative quantities of mHTT and tHTT proteins. As shown in the Table 1, compounds 1 to 82 as described therein and in Table 2, had the following pIC50 values.
(TR-FRET usually uses a lanthanide donor and a delayed reading to cut background.)

Another assay deals with tHTT. Nature of the assay: Mutant and total HTT multiplex HTRF assay in Q48 HTT human embryonic stem cell line: tHTT. Type of assay: cell-based. Particulars: Q48 HTT hESC, 48 hours. As for the experimental part: as §1, §2, §3

The values that follow come from US20240216369A1, “THE USE OF A SPLICING MODULATOR FOR A TREATMENT SLOWING PROGRESSION OF HUNTINGTON'S DISEASE” (Novartis AG, priority 2019, published 2024).

Regarding `CN(c1ccc(-c2ccc(-c3cn[nH]c3)cc2O)nn1)C1CC(C)(C)NC(C)(C)C1` [Compound 1, 2-(6-(methyl(2,2,6,6-tetramethylpiperidin-4-yl)amino)pyridazin-3-yl)-5-(1H-pyrazol-4-yl)phenol], in the assay on mHTT, the “Rating (based on mHTT potency)” value is on record as “***** (a pIC50 value above 7.5 is indicated by five stars (*****))” and the “mHTT pIC50” value was found to be 7.75. Besides, the “tHTT pIC50” value with tHTT was 7.8065.

Take `CN(c1ccc(-c2cc3c(=O)n(C)ccc3cc2O)nn1)C1CC(C)(C)NC(C)(C)C1` [Compound 2, 6-hydroxy-2-methyl-7-(6-(methyl(2,2,6,6-tetramethylpiperidin-4-yl)amino)pyridazin-3-yl)isoquinolin-1(2H)-one]: in the assay with mHTT, the “Rating (based on mHTT potency)” value was “***** (a pIC50 value above 7.5 is indicated by five stars (*****))” and the “mHTT pIC50” value amounted to 7.73. The “tHTT pIC50” value in the assay with tHTT is 7.6555.

On to `CN(c1ccc(-c2ccc(-c3cn[nH]c3)cc2O)nn1)[C@H]1C[C@]2(C)CC[C@](C)(C1)N2` [Compound 3, 2-(6-(((1R,5S)-1,5-dimethyl-8-azabicyclo[3.2.1]octan-3-yl)(methyl)amino)pyridazin-3-yl)-5-(1H-pyrazol-4-yl)phenol], for which, in the assay on mHTT, the “Rating (based on mHTT potency)” value is given as “***** (a pIC50 value above 7.5 is indicated by five stars (*****))” and the “mHTT pIC50” value was 7.717. For the same compound, in the assay with tHTT, the “tHTT pIC50” value came to 7.609.

`CN(c1ccc(-c2ccc(-n3ccc(N)n3)cc2O)nn1)C1CC(C)(C)NC(C)(C)C1` [Compound 4, 5-(3-amino-1H-pyrazol-1-yl)-2-(6-(methyl(2,2,6,6-tetramethylpiperidin-4-yl)amino)pyridazin-3-yl)phenol]: in the assay with mHTT, the “Rating (based on mHTT potency)” value is listed as “***** (a pIC50 value above 7.5 is indicated by five stars (*****))” and the “mHTT pIC50” value is listed as 7.6. For the same compound, the “tHTT pIC50” value in the assay on tHTT was determined as 7.5845.

With `CN(c1ccc(-c2ccc(-c3ccn(C)c(=O)c3)cc2O)nn1)C1CC(C)(C)NC(C)(C)C1` [Compound 5, 4-(3-hydroxy-4-(6-(methyl(2,2,6,6-tetramethylpiperidin-4-yl)amino)pyridazin-3-yl)phenyl)-1-methylpyridin-2(1H)-one], in the assay on mHTT, the “Rating (based on mHTT potency)” value was “***** (a pIC50 value above 7.5 is indicated by five stars (*****))” and the “mHTT pIC50” value was determined as 7.591. Moreover, the “tHTT pIC50” value in the assay with tHTT is on record as 7.5935.

For `CN(c1nnc(-c2ccc(-c3ccc(=O)n(C)c3)cc2O)s1)C1CC(C)(C)NC(C)(C)C1` [Compound 6, 5-(3-hydroxy-4-(5-(methyl(2,2,6,6-tetramethylpiperidin-4-yl)amino)-1,3,4-thiadiazol-2-yl)phenyl)-1-methylpyridin-2(1H)-one], in the assay with mHTT, the “Rating (based on mHTT potency)” value is “***** (a pIC50 value above 7.5 is indicated by five stars (*****))” and the “mHTT pIC50” value was 7.585. Also, in the assay with tHTT, the “tHTT pIC50” value was 7.493.

On to `CC1(C)CC(Oc2ccc(-c3c(O)cc(-c4cn[nH]c4)cc3F)nn2)CC(C)(C)N1` [Compound 7, 3-fluoro-5-(1H-pyrazol-4-yl)-2-(6-((2,2,6,6-tetramethylpiperidin-4-yl)oxy)pyridazin-3-yl)phenol], for which, in the assay with mHTT, the “Rating (based on mHTT potency)” value is on record as “***** (a pIC50 value above 7.5 is indicated by five stars (*****))” and the “mHTT pIC50” value is reported as 7.5265. The “tHTT pIC50” value in the assay on tHTT was found to be 7.51.

For the compound `CN(c1ccc(-c2ccc(-c3ccnc(O)c3)cc2O)nn1)C1CC(C)(C)NC(C)(C)C1` [Compound 8, 4-(3-hydroxy-4-(6-(methyl(2,2,6,6-tetramethylpiperidin-4-yl)amino)pyridazin-3-yl)phenyl)pyridin-2-ol], in the assay with mHTT, the “Rating (based on mHTT potency)” value was “**** (a pIC50 value between 7.0 and 7.5 is indicated by four stars (****))”; the “mHTT pIC50” value was 7.4855. In addition, the “tHTT pIC50” value with tHTT came to 7.4435.

Regarding `CN(c1nnc(-c2c(O)cc(-c3cn[nH]c3)cc2Cl)s1)C1CC(C)(C)NC(C)(C)C1` [Compound 9, 3-chloro-2-(5-(methyl(2,2,6,6-tetramethylpiperidin-4-yl)amino)-1,3,4-thiadiazol-2-yl)-5-(1H-pyrazol-4-yl)phenol], in the assay with mHTT, the “Rating (based on mHTT potency)” value was “**** (a pIC50 value between 7.0 and 7.5 is indicated by four stars (****))”; the “mHTT pIC50” value is 7.4435. For the same compound, the “tHTT pIC50” value in the assay with tHTT amounted to 7.353.

For the compound `Cc1cc2cc(-c3ccc(N(C)C4CC(C)(C)NC(C)(C)C4)nn3)c(O)cc2c(C#N)n1` [Compound 10, 7-hydroxy-3-methyl-6-(6-(methyl(2,2,6,6-tetramethylpiperidin-4-yl)amino)pyridazin-3-yl)isoquinoline-1-carbonitrile], in the assay with mHTT, the “Rating (based on mHTT potency)” value was “**** (a pIC50 value between 7.0 and 7.5 is indicated by four stars (****))”; the “mHTT pIC50” value was 7.4395. The “tHTT pIC50” value in the assay on tHTT was determined as 7.3875.

Consider `Cc1cc2cc(O)c(-c3ccc(N(C)C4CC(C)(C)NC(C)(C)C4)nn3)cc2c(C)n1` [Compound 11, 1,3-dimethyl-7-(6-(methyl(2,2,6,6-tetramethylpiperidin-4-yl)amino)pyridazin-3-yl)isoquinolin-6-ol], for which, in the assay on mHTT, the “Rating (based on mHTT potency)” value was “**** (a pIC50 value between 7.0 and 7.5 is indicated by four stars (****))”; the “mHTT pIC50” value was determined as 7.3875. The “tHTT pIC50” value in the assay on tHTT is listed as 7.3965.

Consider `CC1(C)CC(Nc2ccc(-c3ccc(-n4cccn4)cc3O)nn2)CC(C)(C)N1` [Compound 12, 5-(1H-pyrazol-1-yl)-2-(6-((2,2,6,6-tetramethylpiperidin-4-yl)amino)pyridazin-3-yl)phenol], for which, in the assay on mHTT, the “Rating (based on mHTT potency)” value is “**** (a pIC50 value between 7.0 and 7.5 is indicated by four stars (****))”; the “mHTT pIC50” value worked out at 7.379. Further, the “tHTT pIC50” value with tHTT was determined as 7.2825.

Take `CN(c1nnc(-c2ccc(-c3cn[nH]c3)cc2O)s1)C1CC(C)(C)NC(C)(C)C1` [Compound 13, 2-(5-(methyl(2,2,6,6-tetramethylpiperidin-4-yl)amino)-1,3,4-thiadiazol-2-yl)-5-(1H-pyrazol-4-yl)phenol]: in the assay with mHTT, the “Rating (based on mHTT potency)” value was “**** (a pIC50 value between 7.0 and 7.5 is indicated by four stars (****))”; the “mHTT pIC50” value was determined as 7.3545. In addition, the “tHTT pIC50” value with tHTT was found to be 7.383.

On to `CN(c1ccc(-c2cc(Cl)c(-c3cn[nH]c3)cc2O)nn1)C1CC(C)(C)NC(C)(C)C1` [Compound 14, 4-chloro-2-(6-(methyl(2,2,6,6-tetramethylpiperidin-4-yl)amino)pyridazin-3-yl)-5-(1H-pyrazol-4-yl)phenol], for which, in the assay on mHTT, the “Rating (based on mHTT potency)” value was “**** (a pIC50 value between 7.0 and 7.5 is indicated by four stars (****))”; the “mHTT pIC50” value amounted to 7.35. In the assay with tHTT, the “tHTT pIC50” value is 7.389.

`Cc1ccc2cc(O)c(-c3ccc(N(C)C4CC(C)(C)NC(C)(C)C4)nn3)cc2n1` [Compound 15, 2-methyl-7-(6-(methyl(2,2,6,6-tetramethylpiperidin-4-yl)amino)pyridazin-3-yl)quinolin-6-ol]: in the assay with mHTT, the “Rating (based on mHTT potency)” value is “**** (a pIC50 value between 7.0 and 7.5 is indicated by four stars (****))”; the “mHTT pIC50” value was determined as 7.349. Besides, the “tHTT pIC50” value with tHTT came to 7.283.

Consider `CN(c1nnc(-c2ccc(-c3cnn(C)c3)cc2O)s1)C1CC(C)(C)NC(C)(C)C1` [Compound 16, 2-(5-(methyl(2,2,6,6-tetramethylpiperidin-4-yl)amino)-1,3,4-thiadiazol-2-yl)-5-(1-methyl-1H-pyrazol-4-yl)phenol], for which, in the assay on mHTT, the “Rating (based on mHTT potency)” value was “**** (a pIC50 value between 7.0 and 7.5 is indicated by four stars (****))”; the “mHTT pIC50” value is on record as 7.3285. Also, in the assay on tHTT, the “tHTT pIC50” value is given as 7.481.

`Cc1cnc2cc(-c3ccc(N(C)C4CC(C)(C)NC(C)(C)C4)nn3)c(O)cc2c1` [Compound 17, 3-methyl-7-(6-(methyl(2,2,6,6-tetramethylpiperidin-4-yl)amino)pyridazin-3-yl)quinolin-6-ol]: in the assay on mHTT, the “Rating (based on mHTT potency)” value was “**** (a pIC50 value between 7.0 and 7.5 is indicated by four stars (****))”; the “mHTT pIC50” value is 7.2895. For the same compound, the “tHTT pIC50” value in the assay with tHTT amounted to 7.424.

`CN(c1ccc(-c2ccc(-n3cccn3)cc2O)nn1)C1CC(C)(C)NC(C)(C)C1` [Compound 19, 2-(6-(methyl(2,2,6,6-tetramethylpiperidin-4-yl)amino)pyridazin-3-yl)-5-(1H-pyrazol-1-yl)phenol]: in the assay with mHTT, the “Rating (based on mHTT potency)” value is “**** (a pIC50 value between 7.0 and 7.5 is indicated by four stars (****))”; the “mHTT pIC50” value was 7.2235. Besides, the “tHTT pIC50” value in the assay with tHTT is reported as 7.178.

`COc1cc(-c2cnn(C)c2)cc(O)c1-c1ccc(N(C)C2CC(C)(C)NC(C)(C)C2)nn1` [Compound 20, 3-methoxy-2-(6-(methyl(2,2,6,6-tetramethylpiperidin-4-yl)amino)pyridazin-3-yl)-5-(1-methyl-1H-pyrazol-4-yl)phenol]: in the assay on mHTT, the “Rating (based on mHTT potency)” value is “**** (a pIC50 value between 7.0 and 7.5 is indicated by four stars (****))”; the “mHTT pIC50” value is 7.22. Moreover, the “tHTT pIC50” value in the assay on tHTT was 7.106.

As for `CN(c1ccc(-c2cc3ccc(C(N)=O)nc3cc2O)nn1)C1CC(C)(C)NC(C)(C)C1` [Compound 21, 7-hydroxy-6-(6-(methyl(2,2,6,6-tetramethylpiperidin-4-yl)amino)pyridazin-3-yl)quinoline-2-carboxamide], in the assay with mHTT, the “Rating (based on mHTT potency)” value is “**** (a pIC50 value between 7.0 and 7.5 is indicated by four stars (****))”; the “mHTT pIC50” value was found to be 7.203. For the same compound, the “tHTT pIC50” value with tHTT came to 7.221.
